In patent US6713449B1, “E2F activity inhibitory compounds” (Kyowa Hakko Kogyo Co., Ltd., priority 1996, dated 2004):
Where a SMILES comes first, the peptide text is derived from it. The star is where a group is joined. Lauroyl = CCCCCCCCCCCC(=O)*

How the values were obtained:
[1] = biological target: T1, GST-E2F-1 and GST-DP-1 binding to 32P-labeled E2F probe (Homo sapiens, UniProt Q01094+Q14186); assay: Assay of E2F-DNA binding-inhibiting activity by gel shift assay; conditions: 30° C. 30 minutes
T1 construct: a part of human E2F-1 (101-st to 227-th amino acid residues from the N terminus) and GST; a part of the human DP-1 (84-th to 241-th amino acid residues from the N terminus) with GST; made in house; host or cells: Escherichia coli XL1-blue
T1 sequence (Q01094 101-227): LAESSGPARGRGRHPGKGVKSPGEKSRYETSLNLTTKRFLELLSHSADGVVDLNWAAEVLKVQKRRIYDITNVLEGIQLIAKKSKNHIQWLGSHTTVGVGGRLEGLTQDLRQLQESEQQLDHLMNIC
T1 sequence (Q14186 84-241): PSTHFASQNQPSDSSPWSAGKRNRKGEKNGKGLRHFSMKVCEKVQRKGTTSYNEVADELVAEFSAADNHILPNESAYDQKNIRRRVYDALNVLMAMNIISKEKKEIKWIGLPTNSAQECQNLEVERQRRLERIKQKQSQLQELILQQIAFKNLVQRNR
Method: Assay of E2F-DNA Binding-inhibiting Activity by Gel Shift Assay (1-1) Expression of a Fusion Protein of E2F-1 and DP-1 in Escherichia Coli
So as to assay the activity to inhibit E2F-DNA binding, a fusion protein of glutathione-S-transferase (abbreviated as GST hereinbelow) with the genes of human E2F-1 [Cell, 70, 337 (1992); Cell, 70, 351 (1992)] and human DP-1 [Genes Dev., 7, 1850 (1993)] was prepared.
(1-2) Gel Shift Experiments by Using GST-E2F-1 and GST-DP-1
The following two oligonucleotides including the E2F binding sequence, which are complementary sequences to each other;
were added individually at a concentration of 10 μM into a solution comprising 10 mM MgCl2, 5 mM DTT and 50 mM Tris-HCl(pH 7.5), for treatment at 75° C. for 10 minutes, and the resulting solutions were left to stand at ambient temperature while gradually lowering the temperature for annealing. The resulting double-stranded DNA solution (10 μl) was kept in a reaction solution (30 μL) [50 mM Tris-HCl buffer(pH 7.5) containing 10 mM MgCl2, 5 mM dithiothreitol (DTT) 10 units of T4 polynucleotide kinase (manufactured by TaKaRa), 0.2 mCi [γ-^32P]ATP (7,000 Ci/mmol ATP, manufactured by Amersham Co.)] at 37° C. for 60 minutes, to label the 5′ terminus. By adding 0.5 M EDTA (2 μl) to the reaction solution, the reaction was terminated, and thereafter, unreactive [γ-^32P]ATP was removed by using a NickColumn G-50 (manufactured by Pharmacia Co.), to recover E2F probe. Into 20 mM HEPES buffer(pH 7.4)(20 μl) containing 40 mM KCl, 1 mM MgCl2, 0.1 mM EDTA, 0.1% Nonidet P-40, and 1 mM DTT were added 0.1 pmol of ^32P-labeled E2F probe, 100 ng of GST-E2F-1, 100 ng of GST-DP-1, 2 μg of calf thymus DNA and 0 to a 100 μM test compound, for reaction at 30° C. for 30 minutes. After the reaction, the reaction solution was electrophoresed by using 0.5×TBE [2.5 mM Tris-borate buffer, pH 8.3, 0.1 mM EDTA] as an electrophoresis buffer in 4% polyacrylamide gel. GST-E2F-1 and GST-DP-1 proteins were bound to the labeled E2F probe, so that the mobility thereof was reduced. Accordingly, the proteins were detected as upper bands. After electrophoresis, the gel was dried to assay the radioactivity in bands shifting upward, by using an image analyzer Type BAS2000 (manufactured by Fuji Film Co.). The radioactivity in each lane was assayed, to calculate the inhibition ratio, on the basis of the radioactivity of a sample with no test compound contained in the reaction system, according to the following equation.
A: radioactivity in a band shifted in the absence of any test compound
B: radioactivity in a band shifted in the presence of a test compound.

[2] = tested on: E2F dependent transcription (luciferase reporter cell strain E2F-1/Saos-2-1); assay: Assay of activity suppressing E2F responsive transcription (2): reporter cell strain E2F-1/Saos-2-1, Lipofect AMINE; assay type: cell-based, human; conditions: luciferase activity corrected with protein concentration
From the text: Assay of Activity Suppressing E2F Responsive Transcription (2)
Into the XhoI- and HindIII sites of luciferase reporter vector pluc2 with neomycin (G418) resistant gene [Eur. J. Haematol., 52, 73 (1994)] were inserted an SphI-HindIII fragment composed of the 200 base pairs in the core promoter region of the SV40 initial gene 128-0/5243-5171, base number according to “DNA Tumor Viruses, Molecular Biology of Tumor Viruses, 2nd Ed., Part 2 Revised, Edited by J. Tooze, Cold Spring Harbor Laboratory Press, 1982” and a fragment produced by annealing the following two synthetic oligonucleotides;
and then inserting the annealed product into the XhoI and Asp718 sites of the constructed luciferase vector pSE01uc2, reporter plasmid pE2FII-1luc2 was constructed.
By the following method, the plasmid was introduced into a human osteosarcoma-derived cell strain Saos-2 (ATCC HTB85), and the resulting cell was defined as E2F responsive reporter cell. 2×10^6 cells of the Saos-2 cultured in the presence of 5% CO2 in the medium A at 37° C. were suspended in K-PBS buffer (50 μl) [137 mM KCl, 2.7 mM NaCl, 8.1 mM Na2HPO4, 1.5 mM KH2PO4, 4 mM MgCl2], followed by addition of 1 μg/μl plasmid pE2FII-1 luc2 (4 μg) prepared above. […]

[3] = tested on: E2F responsive transcription (human cdc2 promoter-luciferase reporter pcdc21uc2); assay: Assay of activity suppressing E2F responsive transcription (1): human cdc2 promoter luciferase reporter in Saos-2; assay type: cell-based; conditions: 100 μM, electroporation, 40 hours, luciferase activity corrected with protein concentration
Method: Assay of Activity Suppressing E2F Responsive Transcription (1)
The promoter sequence of human cdc2 gene [EMBO J., 11, 1797 (1992)], which has been reported to have an endogenous E2F responsive sequence and to effect an E2F dependent transcription, was bound to the upstream of the firefly luciferase gene, which was designated as reporter gene.
Two micrograms (2 μg) of the plasmid pcdc21uc2 thus prepared were introduced, together with a test compound (100 μM), into 1×10^6 cells of Saos-2 by electroporation, in the same manner as in the Test Example 2. As in the Test Example 2, the resulting cells were inoculated into a cell culture dish of a 60-mm diameter for culturing in the presence of 5% CO2 at 37° C. for 40 hours, and thereafter, the cells were peeled off and recovered by centrifugation. […] The luciferase activity was assayed as follows; 300 μl of a substrate solution [25 mM glycylglycine buffer(pH 7.8), 15 mM MgSO4, 5 mM ATP, and 0.33 mM luciferin] was automatically injected into a luminometer LB953 (manufactured by Beltold Co.), to assay the luminescence for 10 seconds, which was defined as luciferase activity. […] Based on the luciferase activity (after correction with protein concentration) of a sample with no test compound contained in the reaction system, the inhibition ratio was calculated by the following equation. […]

[4] = tested on: human osteosarcoma-derived cell line Saos-2; assay: Assay of growth inhibiting activity on Saos-2 cell (test compound introduced by electric pulse); assay type: cell-based; conditions: 100 μM, 40 hours culture, viable cell number
Method: Assay of Growth Inhibiting Activity on Saos-2 cell
1×10^6 cells of a human osteosarcoma-derived cell line Saos-2 (ATCC HTB85) cultured in an RPMI 1640 culture medium containing 10% fetal calf serum (manufactured by Nissui Co.; referred to as medium A hereinbelow) in the presence of 5% CO2 at 37° C. were suspended in 50 μl of K-PBS buffer [137 mM KCl, 2.7 mM NaCl, 8.1 mM Na2HPO4, 1.5 mM KH2PO4, and 4 mM MgCl2], followed by addition of a test compound appropriately diluted with K-PBS to a final concentration of 100 μM. The suspension was transferred on a 0.2-cm width cuvette (manufactured by BIO-RAD Laboratories) for loading an electric pulse (conditions: an electric voltage=3 kV/cm, a pulse width=100 μ seconds, a pulse interval=one second, a pulse number=two) by using a Shimadzu cell fusion system SSH-1 [manufactured by Shimadzu Corporation]. After leaving the cuvette to stand for 10 minutes, the cells were recovered and suspended in 3 ml of the medium A, for inoculation on a cell culture dish of a 60-mm diameter(manufactured by Iwaki Glass Co.). […] Based on the cell number with no test compound under load of an electric pulse, the inhibition ratio was calculated by the following equation. […]

CCCCCCCCCCCC(=O)N[C@@H](CC(N)=O)C(=O)N[C@@H](CCC(=O)O)C(=O)N[C@@H](CO)C(=O)N[C@@H](C)C(=O)N[C@@H](Cc1ccc(O)cc1)C(=O)N[C@@H](CC(=O)O)C(=O)N[C@@H](CCC(N)=O)C(=O)N[C@@H](CCCCN)C(=O)N[C@@H](CC(N)=O)C(=O)N[C@H](C(=O)N[C@@H](CCCNC(=N)N)C(=O)N[C@@H](CCCNC(=N)N)C(=O)N[C@@H](CCCNC(=N)N)C(=O)N[C@H](C(=O)N[C@@H](Cc1ccc(O)cc1)C(=O)N[C@@H](CC(=O)O)C(=O)N[C@@H](C)C(=O)N[C@@H](CC(C)C)C(=O)N[C@@H](CC(N)=O)C(=O)N[C@H](C(=O)N[C@@H](CC(C)C)C(=O)N[C@@H](CCSC)C(=O)N[C@@H](C)C(=O)N[C@@H](CCSC)C(=O)N[C@@H](CC(N)=O)C(=O)N[C@H](C(=O)N[C@H](C(=O)N[C@@H](CO)C(N)=O)[C@@H](C)CC)[C@@H](C)CC)C(C)C)C(C)C)[C@@H](C)CC [Compound Ib-3] (Lauroyl-NESAYDQKNIRRRVYDALNVLMAMNIIS-NH2)
Inhibition ratio (%) ([1]; 25 μM test compound): 17.9%
Inhibition ratio (%) ([1]; 100 μM test compound): 49.5%

Ac-Ala-Arg-Gly-Arg-Gly-Arg-His-Pro-Gly-Lys-Gly-Val-Lys-Ser-Pro-Gly-Glu-Arg-Ser-Arg-Tyr-Glu-Thr-Ser-Leu-Asn-Leu-Thr-Thr-Lys-Arg-Phe-Leu-Glu-Leu-NH2 (Ac-ARGRGRHPGKGVKSPGERSRYETSLNLTTKRFLEL-NH2) [Compound Ic-1]
Inhibition ratio (%) ([2]; 1 μM): 17%
Inhibition ratio (%) ([2]; 10 μM): 28%

Ac-NESAYDQKNIRRRVYDALNVLMAMNIIS-NH2 [Compound Ib-1]
Inhibition ratio (%) [3]: 83%
Inhibition ratio (%) ([1]; 1 μM test compound): 13.7%
Inhibition ratio (%) ([1]; 10 μM test compound): 52.9%
Inhibition ratio (%) ([1]; 100 μM test compound): 87.6%
Inhibition ratio (%) [4]: 73%
